The subject of test [1] is tau, phosphorylated on the sites Thr212 and Ser214 (AT100). As to the kind of experiment: Tau phosphorylation (AT100) in cortical neurons after Aβ1-42 injury. The format is cell-based, rat. The conditions noted are these: Aβ1-42 injury 72 h; doses above 1 nM. The procedure:
(§1) Rat cortical neurons cultured with microglia were cultured as described by Callizot et al. in J Neurosci Res. 2013, 91: 706-716 with modifications to include microglial cells. Pregnant female rats (Rats Wistar; Janvier Labs France) of 15 days of gestation were killed, after a deep anesthesia with CO2, by cervical dislocation. Then, fetuses were collected and immediately placed in ice-cold L15 Leibovitz medium with a 2% penicillin (10,000 U/ml) and streptomycin (10 mg/ml) solution (PS) and 1% bovine serum albumin (BSA). Cortexes were treated for 20 min at 37° C. with a trypsin-EDTA solution at a final concentration of 0.05% trypsin and 0.02% EDTA. The dissociation was stopped by addition of Dulbecco's modified Eagle's medium (DMEM) with 4.5 g/liter of glucose, containing DNAse I grade II (final concentration 0.5 mg/ml) and 10% fetal calf serum (FCS). Cells were mechanically dissociated by three forced passages through the tip of a 10-mL pipette. […] Viable cells were counted in a Neubauer cytometer, using the trypan blue exclusion test. […]
(§2) Cortical neurons were intoxicated with A3 solutions (see below) after 11 days of culture. […] This solution was gently agitated for 3 days at 37° C. in the dark and immediately used after being properly diluted in control medium to the concentrations used ([…] of Aβ1-42 preparation containing […] of Aβ oligomers (AβO) measured by WB). […]

Test [2] concerns microglial cells. As to the kind of experiment: Microglia activation (OX-41) after Aβ1-42 injury. Type of test: cell-based, rat. The conditions noted are these: Aβ1-42 injury 72 h; at the investigated doses. The procedure: as §1, §2

For the substance “N-(3-(4-(3-(diisobutylamino)propyl)piperazin-1-yl)propyl)-1H-benzo[d]imidazol-2-amine sesqui-succinate salt [sesqui-succinate salt Form 1]”, the “hyperphosphorylation of Tau (AT100 in MAP-2 neurons)” value in test [1] is “significantly reduced”. The “activation of microglial cells (OX41 area)” value in test [2] is on record as “able to decrease the activation of microglial cells”.

(Values after patent publication US20230391729A1, “SUCCINATE SALTS OF N-(3-(4-(3-(DIISOBUTYLAMINO)PROPYL)PIPERAZIN-1-YL)PROPYL)-1H-BENZO[D]IMIDAZOL-2-AMINE, PREPARATION THEREOF AND USE OF THE SAME” (ALZPROTECT, priority 2020, published 2023).)
